Consider one molecule from patent publication US20220096389A1, “PHARMACEUTICAL COMPOSITIONS OF AMORPHOUS SOLID DISPERSIONS AND METHODS OF PREPARATION THEREOF” (Shenzhen Pharmacin Co., Ltd., priority 2020, published 2022).

Like-named read-outs stand apart in the source and are kept apart here.

For data set [1] the following is noted: cited from earlier work.
Data set [2] in a line: Kinetic solubility profiles of palbociclib ASD powders. It is filed as physicochemical. The conditions noted are these: aqueous buffer, thermodynamic from solid; pH 6.5 phosphate buffer, 37 C.

For the molecule `CC(=O)c1c(C)c2cnc(Nc3ccc(N4CCNCC4)cn3)nc2n(C2CCCC2)c1=O` [Palbociclib, 6-acetyl-8-cyclopentyl-5-methyl-2-[(5-piperazin-1-ylpyridin-2-yl)amino]pyrido[2,3-d]pyrimidin-7-one], the figures for the solubility entry in data set [1] (pH value below 4), in data set [1] (pH value higher than 4) and in data set [2] were “high”, “less than 0.02 mg/ml” and below 10 µg/mL, respectively.
